Legend:
Carbonic anhydrase 9 = Carbonic anhydrase 9 (Homo sapiens, UniProt Q16790)
Description: Inhibition of human carbonic anhydrase 9 by stopped-flow CO2 hydrase assay

Carbonic anhydrase 2 = Carbonic anhydrase 2 (Homo sapiens, UniProt P00918); experiment: Inhibition of human carbonic anhydrase 2 by stopped-flow CO2 hydrase assay
Carbonic anhydrase 1 = Carbonic anhydrase 1 (Homo sapiens, UniProt P00915); experiment: Inhibition of human carbonic anhydrase 1 by stopped-flow CO2 hydrase assay
Carbonic anhydrase 12 = Carbonic anhydrase 12 (Homo sapiens, UniProt O43570)
Chain of Carbonic anhydrase 12 (O43570 whole entry): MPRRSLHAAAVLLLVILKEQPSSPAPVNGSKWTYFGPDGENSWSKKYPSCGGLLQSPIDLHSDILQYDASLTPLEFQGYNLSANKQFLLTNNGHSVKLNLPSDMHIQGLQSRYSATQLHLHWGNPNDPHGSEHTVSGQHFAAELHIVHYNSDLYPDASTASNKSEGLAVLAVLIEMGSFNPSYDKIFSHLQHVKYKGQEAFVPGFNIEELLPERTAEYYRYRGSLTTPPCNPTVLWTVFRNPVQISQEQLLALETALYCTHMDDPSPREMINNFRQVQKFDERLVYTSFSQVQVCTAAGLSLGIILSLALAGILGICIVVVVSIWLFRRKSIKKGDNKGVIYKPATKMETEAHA
Description: Inhibition of human carbonic anhydrase 12 by stopped-flow CO2 hydrase assay

Chain of Carbonic anhydrase 1 (P00915 whole entry): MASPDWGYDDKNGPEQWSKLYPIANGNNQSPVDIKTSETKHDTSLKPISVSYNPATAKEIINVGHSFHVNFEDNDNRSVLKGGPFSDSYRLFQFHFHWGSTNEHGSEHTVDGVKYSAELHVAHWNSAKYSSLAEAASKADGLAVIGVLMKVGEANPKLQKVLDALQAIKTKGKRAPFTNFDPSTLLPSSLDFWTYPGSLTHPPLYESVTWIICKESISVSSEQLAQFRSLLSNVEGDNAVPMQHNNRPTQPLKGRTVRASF

SMILES	Ki (Carbonic anhydrase 9) [nM]	Ki (Carbonic anhydrase 2) [nM]	Ki (Carbonic anhydrase 1) [nM]	Ki (Carbonic anhydrase 12) [nM]
NS(=O)(=O)c1ccc(N2C(=O)CCC2=O)cc1	10.8			
NS(=O)(=O)c1ccc(N2C(=O)c3ccccc3C2=O)cc1	3.8			
NS(=O)(=O)c1ccc(CN2C(=O)c3nccnc3C2=O)cc1	5.9			
O=C(O)c1ccc(N2C(=O)c3c(Cl)c(Cl)c(Cl)c(Cl)c3C2=O)cc1	4.4	> 1000		
O=C(O)c1ccc(N2C(=O)c3cccc4cccc(c34)C2=O)cc1	5.9	> 1000	> 1000	1.2
CC(C)(C)c1ccc2c(c1)C(=O)N(c1ccc(S(N)(=O)=O)cc1)C2=O	2.4			
CC(C)(C)c1ccc2c(c1)C(=O)N(c1ccc(C(=O)O)cc1)C2=O	428	> 1000		
O=C(O)c1ccc(N2C(=O)c3cc(Cl)c(Cl)cc3C2=O)cc1	41.6	> 1000		
NS(=O)(=O)c1ccc(CN2C(=O)c3c(Cl)c(Cl)c(Cl)c(Cl)c3C2=O)cc1	3.1			
O=C(O)c1ccc(N2C(=O)c3nccnc3C2=O)cc1	22.1	> 1000	> 1000	
O=C(O)c1ccc(N2C(=O)c3ccccc3C2=O)cc1	4.9	166	30.2	18.7
NS(=O)(=O)c1ccc(CN2C(=O)c3ccccc3C2=O)cc1	4.1			
NS(=O)(=O)c1ccc(CN2C(=O)CCC2=O)cc1	29.3			

Results, then the molecule that gave them:

Ki (Carbonic anhydrase 9) [nM]	Ki (Carbonic anhydrase 2) [nM]	Ki (Carbonic anhydrase 1) [nM]	Ki (Carbonic anhydrase 12) [nM]	SMILES
4.9				NS(=O)(=O)c1ccc(N2C(=O)c3cccc4cccc(c34)C2=O)cc1
5.9	26.2	21.8	0.85	Cc1ccc2c(c1)C(=O)N(Cc1ccc(S(N)(=O)=O)cc1)C2=O
2.9				NS(=O)(=O)c1ccc(N2C(=O)c3nccnc3C2=O)cc1
3.3				Cc1ccc2c(c1)C(=O)N(c1ccc(S(N)(=O)=O)cc1)C2=O
4.6				NS(=O)(=O)c1ccc(CN2C(=O)c3cccc4cccc(c34)C2=O)cc1
506	> 1000			O=C(O)c1ccc(N2C(=O)CCC2=O)cc1
350	> 1000			Cc1ccc2c(c1)C(=O)N(c1ccc(C(=O)O)cc1)C2=O
	> 1000	> 1000		O=C(O)c1ccc(N2C(=O)c3ccc([N+](=O)[O-])cc3C2=O)cc1
2.6				NS(=O)(=O)c1ccc(CN2C(=O)[C@H]3CC=CC[C@H]3C2=O)cc1
4.4	4.8	31.2	0.57	NS(=O)(=O)c1ccc(N2C(=O)[C@H]3CC=CC[C@H]3C2=O)cc1

Source: ChEMBL document CHEMBL3351996, “Carbonic anhydrase inhibitory activity of sulfonamides and carboxylic acids incorporating cyclic imide scaffolds” (Bioorg Med Chem Lett, 2014)
